Laboratory results taken from ChEMBL document CHEMBL3091276, “Design, synthesis and evaluation of 6-(4-((substituted-1H-1,2,3-triazol-4-yl)methyl)piperazin-1-yl)phenanthridine analogues as antimycobacterial agents” (Bioorg Med Chem Lett, 2013).
Converted amounts (≈) assume the structure as drawn.

Key:
[1] = test system: Mycobacterium tuberculosis; experiment: Antimycobacterial activity in Mycobacterium tuberculosis H37Rv after 5 days by Alamar Blue assay; format: functional; conditions: 120 h
RAW264.7 = experiment: Cytotoxicity against mouse RAW264.7 cells by MTT assay; format: cell-based
[2] = Selectivity index, ratio of IC50 for mouse RAW264.7 cells to MIC99 for Mycobacterium tuberculosis H37Rv; format: toxicity; conditions: read-out: Selectivity Index
[3] = Cytotoxicity against mouse RAW264.7 cells at 50 ug/ml by MTT assay relative to control; format: cell-based; conditions: read-out: INH

Row | SMILES | MIC99 [1] | IC50 (RAW264.7) | selectivity ratio [2] | cytotoxicity at 50 ug/ml [3]
1 | c1ccc(Cn2cc(CN3CCN(c4nc5ccccc5c5ccccc45)CC3)nn2)cc1 | 50 µg/mL (≈ 115 µM) | – | – | –
2 | CCc1ccc(-n2cc(CN3CCN(c4nc5ccccc5c5ccccc45)CC3)nn2)cc1 | 50 µg/mL (≈ 111 µM) | – | – | –
3 | Cc1ccc(-n2cc(CN3CCN(c4nc5ccccc5c5ccccc45)CC3)nn2)c(C)c1 | 12.5 µg/mL (≈ 27.9 µM) | – | – | –
4 | c1ccc2c(c1)nc(N1CCN(Cc3cn(-c4ccc5c(c4)OCO5)nn3)CC1)c1ccccc12 | 50 µg/mL (≈ 108 µM) | – | – | –
5 | COc1cccc(-n2cc(CN3CCN(c4nc5ccccc5c5ccccc45)CC3)nn2)c1 | 50 µg/mL (≈ 111 µM) | – | – | –
6 | COc1ccc(-n2cc(CN3CCN(c4nc5ccccc5c5ccccc45)CC3)nn2)cc1 | 3.12 µg/mL (≈ 6.94 µM) | > 125 µg/mL | > 15 | 19.2%
7 | Clc1ccc(-n2cc(CN3CCN(c4nc5ccccc5c5ccccc45)CC3)nn2)cc1Cl | 50 µg/mL (≈ 102 µM) | – | – | –
8 | Clc1ccc(-n2cc(CN3CCN(c4nc5ccccc5c5ccccc45)CC3)nn2)cc1 | 25 µg/mL (≈ 54.9 µM) | – | – | –
9 | Clc1ccccc1-n1cc(CN2CCN(c3nc4ccccc4c4ccccc34)CC2)nn1 | 12.5 µg/mL (≈ 27.5 µM) | – | – | –
10 | Clc1cccc(-n2cc(CN3CCN(c4nc5ccccc5c5ccccc45)CC3)nn2)c1 | 3.12 µg/mL (≈ 6.87 µM) | > 150 µg/mL | > 20 | 12.6%
11 | Brc1ccccc1-n1cc(CN2CCN(c3nc4ccccc4c4ccccc34)CC2)nn1 | 50 µg/mL (≈ 100 µM) | – | – | –
12 | Brc1ccc(-n2cc(CN3CCN(c4nc5ccccc5c5ccccc45)CC3)nn2)cc1 | 12.5 µg/mL (≈ 25 µM) | – | – | –
13 | Fc1ccc(-n2cc(CN3CCN(c4nc5ccccc5c5ccccc45)CC3)nn2)cc1Cl | 50 µg/mL (≈ 106 µM) | – | – | –
14 | Fc1ccc(-n2cc(CN3CCN(c4nc5ccccc5c5ccccc45)CC3)nn2)cc1F | 25 µg/mL (≈ 54.8 µM) | – | – | –
15 | Fc1ccc(-n2cc(CN3CCN(c4nc5ccccc5c5ccccc45)CC3)nn2)cc1 | 25 µg/mL (≈ 57 µM) | – | – | –
16 | FC(F)(F)c1cccc(-n2cc(CN3CCN(c4nc5ccccc5c5ccccc45)CC3)nn2)c1 | 12.5 µg/mL (≈ 25.6 µM) | – | – | –
17 | O=[N+]([O-])c1cccc(-n2cc(CN3CCN(c4nc5ccccc5c5ccccc45)CC3)nn2)c1 | 6.25 µg/mL (≈ 13.4 µM) | – | – | –
18 | O=S(=O)(c1ccccc1)n1cc(CN2CCN(c3nc4ccccc4c4ccccc34)CC2)nn1 | 1.56 µg/mL (≈ 3.22 µM) | > 425 µg/mL | > 125 | 5.82%
19 | Cc1ccc(S(=O)(=O)n2cc(CN3CCN(c4nc5ccccc5c5ccccc45)CC3)nn2)cc1 | 12.5 µg/mL (≈ 25.1 µM) | – | – | –
20 | NNC(=O)c1ccncc1 [ISONIAZID] | 0.36 µg/mL (≈ 2.63 µM) | – | – | –
21 | CO[C@H]1/C=C/O[C@@]2(C)Oc3c(C)c(O)c4c(O)c(c(/C=N/N5CCN(C)CC5)c(O)c4c3C2=O)NC(=O)/C(C)=C\C=C\[C@H](C)[C@H](O)[C@@H](C)[C@@H](O)[C@@H](C)[C@H](OC(C)=O)[C@@H]1C [RIFAMPIN] | 0.02 µg/mL (≈ 0.0243 µM) | – | – | –
